Measured values: PMC11588093, “MurA-catalyzed synthesis of 5-enolpyruvylshikimate-3-phosphate confers glyphosate tolerance in bryophytes” (Proceedings of the National Academy of Sciences of the …, 2024)

How the values were obtained:
[1] = molecular target: T1, MpMurA (Marchantia polymorpha, UniProt A0A2R6X746); assay: phosphate release by malachite green; EPSP product by LC-MS/MS; format: biochemical; settings: 1 mM S3P, 1 mM PEP; pH 7.5, 25 °C
T1 construct: gene MARPO_0032s0102; codon-optimised synthetic gene, E. coli BL21(DE3); His-tag removed with 3C protease; IMAC and SEC
T1 sequence (A0A2R6X746 46-482): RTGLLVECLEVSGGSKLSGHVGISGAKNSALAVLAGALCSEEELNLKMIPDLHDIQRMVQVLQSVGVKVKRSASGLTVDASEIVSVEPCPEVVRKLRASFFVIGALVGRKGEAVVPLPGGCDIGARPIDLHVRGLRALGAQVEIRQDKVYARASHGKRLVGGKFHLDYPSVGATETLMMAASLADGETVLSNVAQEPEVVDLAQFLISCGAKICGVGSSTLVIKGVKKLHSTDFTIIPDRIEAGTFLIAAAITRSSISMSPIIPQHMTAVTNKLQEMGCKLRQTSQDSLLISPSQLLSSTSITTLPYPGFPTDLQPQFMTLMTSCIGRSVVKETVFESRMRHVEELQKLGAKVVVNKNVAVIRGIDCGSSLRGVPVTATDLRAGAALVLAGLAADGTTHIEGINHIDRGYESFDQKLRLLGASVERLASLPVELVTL
From the text: phosphate release by malachite green; EPSP product by LC-MS/MS on MpMurA | Phosphate was produced by MpMurA in the presence of […] and PEP

[2] = molecular target: T1, MpMurA; assay: phosphate release by malachite green; format: biochemical; settings: 1 mM UDP-GlcNAc, 1 mM PEP; pH 7.5, 25 °C
[3] = molecular target: T2, AtEPSPS (Arabidopsis thaliana, UniProt P05466); assay: dose-response of enzyme activity, phosphate release by malachite green; format: biochemical
T2 construct: gene At2g45300; codon-optimised synthetic gene, E. coli BL21(DE3); His-tag removed with 3C protease; IMAC and SEC
T2 sequence (P05466 77-520): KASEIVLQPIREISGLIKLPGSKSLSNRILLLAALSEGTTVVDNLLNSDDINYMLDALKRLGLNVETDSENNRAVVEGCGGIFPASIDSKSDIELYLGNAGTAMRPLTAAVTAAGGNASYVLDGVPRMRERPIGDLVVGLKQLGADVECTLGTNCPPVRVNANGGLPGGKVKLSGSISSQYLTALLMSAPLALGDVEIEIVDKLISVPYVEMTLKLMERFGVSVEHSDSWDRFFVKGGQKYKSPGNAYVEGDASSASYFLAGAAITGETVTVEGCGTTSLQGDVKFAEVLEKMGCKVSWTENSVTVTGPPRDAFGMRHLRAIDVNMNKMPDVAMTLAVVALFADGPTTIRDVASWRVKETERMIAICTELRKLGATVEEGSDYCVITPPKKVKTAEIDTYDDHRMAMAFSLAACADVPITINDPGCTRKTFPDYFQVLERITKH

[4] = molecular target: T3, MpEPSPS (Marchantia polymorpha, UniProt A0A2R6X5Y9); assay: as above; format: biochemical
T3 construct: gene MARPO_0034s0104; codon-optimised synthetic gene, E. coli BL21(DE3); His-tag removed with 3C protease; IMAC and SEC
T3 sequence (A0A2R6X5Y9 79-527): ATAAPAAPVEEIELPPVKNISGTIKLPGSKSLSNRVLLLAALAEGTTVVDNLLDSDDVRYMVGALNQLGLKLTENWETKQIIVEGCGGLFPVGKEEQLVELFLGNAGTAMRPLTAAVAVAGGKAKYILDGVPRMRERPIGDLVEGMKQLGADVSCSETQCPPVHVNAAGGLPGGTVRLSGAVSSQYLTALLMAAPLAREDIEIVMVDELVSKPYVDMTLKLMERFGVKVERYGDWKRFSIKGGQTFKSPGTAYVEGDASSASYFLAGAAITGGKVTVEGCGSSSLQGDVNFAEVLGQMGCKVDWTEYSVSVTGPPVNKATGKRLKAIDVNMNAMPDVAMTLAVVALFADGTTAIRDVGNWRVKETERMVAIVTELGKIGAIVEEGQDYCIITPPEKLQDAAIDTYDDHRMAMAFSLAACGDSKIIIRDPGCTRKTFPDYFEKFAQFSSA

[5] = substrate: C=C(OP(=O)(O)O)C(=O)O; assay: purified protein; settings: co-substrate S3P, pH 7.5, 25 °C
[6] = substrate: O=C(O)C1=C[C@@H](OP(=O)(O)O)[C@@H](O)[C@H](O)C1; assay: Michaelis-Menten kinetics, phosphate release by malachite green; format: biochemical, Arabidopsis thaliana; settings: co-substrate PEP, pH 7.5, 25 °C
[7] = substrate: C=C(OP(=O)(O)O)C(=O)O; assay: as above; format: biochemical, Marchantia polymorpha; settings: co-substrate S3P, pH 7.5, 25 °C
[8] = substrate: O=C(O)C1=C[C@@H](OP(=O)(O)O)[C@@H](O)[C@H](O)C1; assay: as above; format: biochemical, Marchantia polymorpha; settings: co-substrate PEP, pH 7.5, 25 °C

In the case of `O=C(O)C1=C[C@@H](OP(=O)(O)O)[C@@H](O)[C@H](O)C1` [S3P], the “phosphate release by malachite green; EPSP product by LC-MS/MS” value [1] is reported as “Phosphate was produced by MpMurA in the presence of S3P and PEP”.

For `CC(=O)N[C@H]1[C@@H](OP(=O)(O)OP(=O)(O)OC[C@H]2O[C@@H](n3ccc(=O)[nH]c3=O)[C@H](O)[C@@H]2O)O[C@H](CO)[C@@H](O)[C@@H]1O` [UDP-GlcNAc], the “phosphate release by malachite green” value [2] was “the activity of MpMurA with its canonical substrates, UDP-GlcNAc and PEP, were measured”.

With `O=C(O)CNCP(=O)(O)O` [glyphosate] the IC50 [3] was 14.5 ± 5.98 µM and the IC50 [4] was 9.6 ± 9.12 µM.

B1: AtEPSPS (Arabidopsis thaliana) (protein)
chain: T2 sequence (P05466 77-520)
notes: codon-optimised synthetic gene, E. coli BL21(DE3); His-tag removed with 3C protease; IMAC and SEC
For B1, the Km [5] was 163 ± 34 µM and the Km [6] was 196.7 ± 44.63 µM.

B2: MpEPSPS (Marchantia polymorpha) (protein)
chain: T3 sequence (A0A2R6X5Y9 79-527)
notes: as for B1
Molecule B2 has a Km [7] of 180 ± 26 µM and a Km [8] of 119.7 ± 12.82 µM.
